The values that follow come from patent US20160089464A1, “MALODOR REDUCTION COMPOSITIONS” (The Procter & Gamble Company, priority 2014, published 2016).

One data set can be described thus: Comment Code material properties: vapor pressure, ClogP, probability of ingredient color instability, odor detection threshold, melamine formaldehyde PMC headspace response ratio and leakage, liquid dish neat product liquid-air partition coefficient. The data set is classed as physicochemical. Conditions: Table 1 materials; each letter of the code is one property class (vapor pressure, ClogP, color instability, odor detection threshold, PMC headspace ratio, PMC leakage, liquid dish liquid-air partition coefficient).
For the compound `C/C=C/c1cc(OC)c(OC)cc1OC` [Material 924], the “Comment Code” value is on record as “BCFGJK”. `CC(C)(C=O)CC1=CCC2CC1C2(C)C` (stereo not drawn) [Material 925]: the “Comment Code” value is “BDFHJK”. Take `CC(C)=CCCC(C)C12CC=C(C)C1C2` (stereo not drawn) [Material 926]: the “Comment Code” value is “DEFHJKL”.

For `Cc1cccc(CCO)c1` [Material 928], the “Comment Code” value is “BCEFHIK”.

Take `CCC=CCC=CCCO` [Material 929]: the “Comment Code” value is given as “ACEFHK”. On the same count and under the same terms, the result for `CCCCCCCCCCC=CC=O` [Material 930] reads “BDFHJK”. Still for that read-out and setting: the result for `CC1CCC2(O)C(C)(C)C3CCC2(C)C1C3` (stereo not drawn) [Material 933] reads “DEFHIJK”; that for `CCCCCC(=O)Oc1ccc(C)cc1` [Material 939], “DEFHJK”; that for `CCCCCCC1OC(=O)CC1C` (stereo not drawn) [Material 941], “BDEFHIJKL”.

Take `CCCCC/C=C/C=C\C(=O)OCC` [Material 942]: the “Comment Code” value was “BDEFHJK”. On the same count and under the same terms, the result for `N#CC(=C1CCCCC1)c1ccccc1` [Material 945] reads “DFHJK”; that for `C=C(C)C1CC=C(C=O)CC1` (stereo not drawn) [Material 946], “ACHIJK”; that for `C=C(C)C1CC=C(COC(C)=O)CC1` (stereo not drawn) [Material 947], “DFHJK”.

With `C=C(C)C1CC=C(CO)CC1` (stereo not drawn) [Material 948], the “Comment Code” value is reported as “CHIJK”.

As for `CC(C)OCCc1ccccc1` [Material 950], the “Comment Code” value is listed as “ACEFHJKL”.

`CCCCCC=CC=CC(=O)OCC` [Material 951]: the “Comment Code” value is reported as “BDEFHJK”. The same measure, in the same setting: the entry for `c1ccc(CCOC2CCCCC2)cc1` [Material 953] is “DEFHJK”; for `CCC(C)C(=O)OCCc1ccccc1` (stereo not drawn) [Material 954] it is “DEFHJK”; for `OCCc1ccccc1` [Material 955] it is “BCEFGIK”. Still for that read-out and setting: the entry for `O=C(Cc1ccccc1)OCCc1ccccc1` [Material 959] is “DHJ”; for `O=C(Oc1ccccc1)c1ccccc1` [Material 965] it is “DFHJK”; for `O=C(OCCc1ccccc1)c1ccccc1` [Material 967] it is “DHJ”. Regarding `CC1(C)C2CC=C(CC=O)C1C2` (stereo not drawn) [Material 973], the “Comment Code” value was “ACFHIJKL”. For the compound `C=C1C(O)CC2CC1C2(C)C` (stereo not drawn) [Material 974], the “Comment Code” value is on record as “BCEFGIJKL”. Still for that read-out and setting: the result for `CC(=O)CCc1ccc2c(c1)OCO2` [Material 976] reads “CEFGJ”. Consider `CC(C)(C)C(=O)OC1CC2CC1C1CC=CC21` (stereo not drawn) [Material 978], for which the “Comment Code” value is “DEFHJK”. Take `CC1C[C@H]2C3CCC(C3)[C@H]2CC1=O` (stereo partly drawn) [Material 980]: the “Comment Code” value is given as “CEFGJKL”. On the same count and under the same terms, the entry for `CC(C)C1=CCC(C)(O)CC1` (stereo not drawn) [Material 982] is “BCGIJK”. On the same count and under the same terms, the result for `CC1=CCC(/C=C/C(C)(C)C(C)O)C1(C)C` (stereo not drawn) [Material 985] reads “DHJK”; that for `CC(C)=CCCC1=CCC(C)(C=O)CC1` (stereo not drawn) [Material 988], “DFHJK”; that for `CC(O)CO` (stereo not drawn) [Material 993], “ACEFGIKL”. Still for that read-out and setting: the result for `Cc1ccc(OC(=O)Cc2ccccc2)cc1` [Material 998] reads “DFHJ”; that for `CCC=CCC=CC=CC(=O)OCC` [Material 1000], “BDEFHJK”. For the compound `CC1CC(C)(C)OC(Cc2ccccc2)O1` (stereo not drawn) [Material 1003], the “Comment Code” value is reported as “DEFHJK”. With `CC1CC(C)(c2ccccc2)CO1` (stereo not drawn) [Material 1006], the “Comment Code” value is reported as “BDEFHJK”. On the same count and under the same terms, the result for `CC1=CC[C@@H]2C3CC([C@@H]2C1)[C@@]1(C3)OC1C` (stereo partly drawn) [Material 1007] reads “DEFHJK”. Still for that read-out and setting: the entry for `C/C=C1/CC2CC1C1CCCOC21` (stereo not drawn) [Material 1008] is “BCEFHJKL”; for `CCC(=O)OCC(=O)OC(C)C1CCCC(C)(C)C1` (stereo not drawn) [Material 1009] it is “DFHJ”.

Regarding `C=C1CCCC(C)(C)C1C(=O)OC` (stereo not drawn) [Material 1010], the “Comment Code” value is given as “ADHIJKL”. On the same count and under the same terms, the entry for `CC(CO)CCCc1ccccc1` (stereo not drawn) [Material 1012] is “DEFHJK”; for `CC1=CCOC(c2ccccc2)C1` (stereo not drawn) [Material 1016] it is “BCEFGJK”; for `C=C1C(O)CC2(C(C)C)CC12` (stereo not drawn) [Material 1020] it is “BCEFHIJKL”. On the same count and under the same terms, the result for `C=CCc1ccc2c(c1)OCO2` [Material 1021] reads “BCEFHK”; that for `CC1=CC(C)C2(CCCC(C)(C)C2=O)CC1` (stereo not drawn) [Material 1022], “DHIJK”; that for `CC1=CCC(CCC(C)C(C)O)C1(C)C` (stereo not drawn) [Material 1023], “DEFHJK”.

With `CC/C(=C/CC1CC=C(C)C1(C)C)CO` (stereo not drawn) [Material 1024], the “Comment Code” value was “DEFHJK”. Regarding `CC(=CCC1CC=C(C)C1(C)C)CO` (stereo not drawn) [Material 1025], the “Comment Code” value is “CHJK”. Still for that read-out and setting: the entry for `COC1CC2CC1C1CC(C=O)CC21` (stereo not drawn) [Material 1026] is “CHJK”. Same read-out and setting: the result for `C=C[C@](C)(O)CC[C@@H]1[C@@]2(C)CCCC(C)(C)[C@@H]2CC[C@@]1(C)O` [Material 1028] reads “DEFHJ”; that for `CC1=CC[C@@H]2[C@@]3(C)CCCC(C)(C)[C@@H]3CC[C@@]2(C)O1` [Material 1029], “DEFHJK”.

For `CC1=CCCC2(C)CCC(=C(C)C)CC12` (stereo not drawn) [Material 1031], the “Comment Code” value is listed as “DEFHJKL”. Regarding `CC(OC(C)(C)COC(=O)C1CC1)C1CCCC(C)(C)C1` (stereo not drawn) [Material 1032], the “Comment Code” value was “DEFHJ”. Same read-out and setting: the result for `CC(C)Cc1ccc(CC(C)C=O)cc1` (stereo not drawn) [Material 1033] reads “DHJK”; that for `C=C1CC[C@@H]2[C@H]([C@H]3[C@H]1CC[C@]3(C)O)C2(C)C` [Material 1035], “DEFHJK”. The same measure, in the same setting: the entry for `CC1CCC2C(C2(C)C)C12COC(C)(C)OC2` (stereo not drawn) [Material 1036] is “BCEFHJK”.

As to `C=CCCC(=O)C1=CCCC2(CCCC2)C1` [Material 1038], the “Comment Code” value is listed as “DGJK”. Still for that read-out and setting: the result for `Cc1ncsc1CCO` [Material 1042] reads “CGIKL”; that for `CCCCC(CC)C1OCCO1` (stereo not drawn) [Material 1043], “ACEFHIJKL”. Still for that read-out and setting: the entry for `CCCCCCC/C=C\CCC=O` [Material 1045] is “BDFHJK”; for `CC1=CC2C(C(C)C)CCC(C)(O)C2CC1` (stereo not drawn) [Material 1046] it is “DEFHJK”; for `CC1=CC2C(C(C)C)CCC(C)(O)C2CC1` (stereo not drawn) [Material 1047] it is “DEFHJK”. Still for that read-out and setting: the entry for `CCCCCC1C(=O)CCC1C` (stereo not drawn) [Material 1053] is “BDFHIJKL”. For the compound `CC1=CCCC(C)(C)C12CCC(C)O2` (stereo not drawn) [Material 1057], the “Comment Code” value is given as “BDFHIJKL”.

Still in this data set, the particulars now being: cell strings several class symbols together; each letter is one property class of L1.
With `C=C(OC(C)=O)c1ccccc1` [Material 931], the “Comment Code” value is “ACEFHIK”. Still for that read-out and setting: the entry for `CC1CCC2(O)C(C)(C)C3CCC2(C)C1C3` (stereo not drawn) [Material 933] is “DEFHIJK”; for `Cc1ccc(C(C)C)cc1` [Material 940] it is “ADGIJKL”; for `O=COCCc1ccccc1` [Material 956] it is “ACEFHK”. The same measure, in the same setting: the entry for `CC(C)C(=O)OCCc1ccccc1` [Material 958] is “DHJK”; for `C/C=C(\C)C(=O)OCCc1ccccc1` [Material 960] it is “DHJK”; for `C=C(C)C(=O)OCCc1ccccc1` [Material 971] it is “DHJK”.

`CC(C)c1ccc(CC=O)cc1` [Material 977]: the “Comment Code” value is listed as “BDFHK”. Same read-out and setting: the result for `CC(C)(C)C(=O)OC1CC2CC1C1CC=CC21` (stereo not drawn) [Material 978] reads “DEFHJK”; that for `C=C(C)C1CCC(C)(O)C1C` (stereo not drawn) [Material 981], “BCEFGIJKL”; that for `COc1ccc(CC(C)=O)cc1` [Material 983], “BCEFHK”. Same read-out and setting: the entry for `C/C=C\C(=O)/C(C)=C(/C)C(C)C` [Material 986] is “ADHIJKL”; for `CCCc1ccc(OC)cc1` [Material 987] it is “ADEFHKL”. Take `CC(C)(C)c1ccc(CC=O)cc1` [Material 994]: the “Comment Code” value is on record as “BDHJK”.

Consider `CCC(C)(C)C1CCC(O)CC1` (stereo not drawn) [Material 995], for which the “Comment Code” value is “BDEFHIJK”.

As for `CC1=CCC2CC1C2(C)C` (stereo not drawn) [Material 1001], the “Comment Code” value was “ADEFGIJKL”.

Turning to `CC(=O)CCc1ccc(O)cc1` [Material 1002], the “Comment Code” value is recorded as “CEFGIK”. Same read-out and setting: the result for `C=C(C)CCC[C@H](C)CCO` [Material 1004] reads “BCHIJKL”; that for `CCOC(=O)OC1C(C)CCC(C)C1C` (stereo not drawn) [Material 1005], “BDEFHJKL”; that for `CC1=CC[C@@H]2C3CC([C@@H]2C1)[C@@]1(C3)OC1C` (stereo partly drawn) [Material 1007], “DEFHJK”. Still for that read-out and setting: the result for `CC(=O)OC(C)C1CCCC(C)(C)C1` (stereo not drawn) [Material 1011] reads “ADHIJKL”; that for `C=C[C@@](C)(O)CCC=C(C)C` [Material 1017], “BCEFGIJK”; that for `C=C1CCC2(C(C)C)CC12` (stereo not drawn) [Material 1018], “ADEFGIJKL”.

`CC(C)C12CCC(C)(O)C1C2` (stereo not drawn) [Material 1019]: the “Comment Code” value is “ADEFGIJKL”. As for `CC1=CC(C)C2(CCCC(C)(C)C2=O)CC1` (stereo not drawn) [Material 1022], the “Comment Code” value is listed as “DHIJK”. Turning to `CC/C(=C/CC1CC=C(C)C1(C)C)CO` (stereo not drawn) [Material 1024], the “Comment Code” value is on record as “DEFHJK”. Regarding `COC1CC2CC1C1CC(C=O)CC21` (stereo not drawn) [Material 1027], the “Comment Code” value was “CHJK”. Same read-out and setting: the entry for `C=C[C@](C)(O)CC[C@@H]1[C@@]2(C)CCCC(C)(C)[C@@H]2CC[C@@]1(C)O` [Material 1028] is “DEFHJ”. The same measure, in the same setting: the result for `CC1=CC[C@@H]2[C@@]3(C)CCCC(C)(C)[C@@H]3CC[C@@]2(C)O1` [Material 1029] reads “DEFHJK”.

Take `CCCOC(=O)[C@H](C)OC(C)(C)CC` [Material 1030]: the “Comment Code” value is “BDEFHJK”. On to `C=C1CC[C@@H]2[C@H]([C@H]3[C@H]1CC[C@]3(C)O)C2(C)C` [Material 1035], for which the “Comment Code” value is recorded as “DEFHJK”. For the compound `C=CCCC(=O)C1=CCCC2(CCCC2)C1` [Material 1038], the “Comment Code” value is listed as “DGJK”.

As to `O=C1CCC2(CCCCC2)O1` [Material 1039], the “Comment Code” value was “BCGIKL”.

As for `CC/C(CC(C)CC)=N/O` (stereo not drawn) [Material 1040], the “Comment Code” value is listed as “BCEFGIJKL”.

Regarding `CC(=O)OC(C)c1ccccc1` (stereo not drawn) [Material 1041], the “Comment Code” value is recorded as “ACEFHIK”.

In the case of `CC(C)CCCC(C)CC=O` (stereo not drawn) [Material 1051], the “Comment Code” value is “ADGIJKL”. Same read-out and setting: the entry for `CC(O)CCC1C(C)CCCC1(C)C` (stereo not drawn) [Material 1052] is “BDEFHIJK”; for `CCC(C)(O)CCCC(C)C` (stereo not drawn) [Material 1054] it is “BDEFGIJKL”; for `CCC(C)(CCCC(C)C)OC(C)=O` (stereo not drawn) [Material 1055] it is “ADEFHJKL”.
